Assay results taken from patent publication US9802941B2, “Compounds and methods for inhibiting histone demethylases” (Gilead Sciences, Inc., priority 2014, dated 2017).
pIC50: −log10 of the molar value. Like-named read-outs stand apart in the source and are kept apart here.

Experiments:
Assay type in all cases: biochemical
KDM4C (JMJD2C) = target: T1, KDM4C (JMJD2C) (Homo sapiens, UniProt Q9H3R0); experiment: Histone lysine demethylase AlphaLISA assay, KDM4C
T1 construct: KDM4C; BRIC, Denmark; 1-349; E. coli; host or cells: E. coli
T1 sequence (Q9H3R0 1-349): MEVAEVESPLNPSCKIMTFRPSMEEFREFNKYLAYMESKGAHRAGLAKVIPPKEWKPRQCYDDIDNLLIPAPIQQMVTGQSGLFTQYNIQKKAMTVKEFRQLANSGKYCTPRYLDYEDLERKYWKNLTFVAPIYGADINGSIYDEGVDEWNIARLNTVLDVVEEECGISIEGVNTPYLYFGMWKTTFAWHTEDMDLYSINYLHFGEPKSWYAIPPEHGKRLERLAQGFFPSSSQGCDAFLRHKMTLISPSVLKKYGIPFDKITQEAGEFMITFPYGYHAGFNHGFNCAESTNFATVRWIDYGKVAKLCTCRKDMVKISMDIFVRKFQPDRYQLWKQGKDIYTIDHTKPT
In short: (§1)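 Buffer: 50 mM Hepes pH 7.4-8.0, Tween-20, 0.1% BSA, 5 μM ammonium iron(II) sulfate. Enzyme + compound (DMSO) 10 min, then substrate at RT; acceptor and streptavidin donor beads added, dark incubation, AlphaLISA read.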

KDM2B (FBXL10) = target: T2, KDM2B (FBXL10) (Homo sapiens, UniProt Q8NHM5); experiment: Histone lysine demethylase AlphaLISA assay, KDM2B
T2 construct: KDM2B; BPS,; 1-650; Bac; purchased BPS Bioscience, US; host or cells: baculovirus system
T2 sequence (Q8NHM5 1-650): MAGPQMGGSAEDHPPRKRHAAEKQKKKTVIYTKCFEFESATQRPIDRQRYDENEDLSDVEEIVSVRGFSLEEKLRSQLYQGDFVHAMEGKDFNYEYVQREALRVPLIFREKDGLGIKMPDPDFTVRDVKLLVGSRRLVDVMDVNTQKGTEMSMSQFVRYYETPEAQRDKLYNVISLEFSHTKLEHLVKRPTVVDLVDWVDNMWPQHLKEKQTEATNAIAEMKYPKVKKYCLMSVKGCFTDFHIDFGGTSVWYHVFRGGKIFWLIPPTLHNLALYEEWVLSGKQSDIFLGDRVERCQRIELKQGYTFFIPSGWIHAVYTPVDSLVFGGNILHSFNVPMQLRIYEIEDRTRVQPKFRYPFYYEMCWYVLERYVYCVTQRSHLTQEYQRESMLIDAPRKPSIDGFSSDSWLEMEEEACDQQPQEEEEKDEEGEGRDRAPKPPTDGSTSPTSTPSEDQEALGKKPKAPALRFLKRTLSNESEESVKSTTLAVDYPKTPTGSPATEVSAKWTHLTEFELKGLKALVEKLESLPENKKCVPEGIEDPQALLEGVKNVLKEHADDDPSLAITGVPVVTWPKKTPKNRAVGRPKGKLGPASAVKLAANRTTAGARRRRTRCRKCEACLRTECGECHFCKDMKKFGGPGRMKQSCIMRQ
In short: as §1

PHF8 (KDM7) = target: T3, PHF8 (KDM7) (Homo sapiens, UniProt Q9UPP1); experiment: Histone lysine demethylase AlphaLISA assay, PHF8
T3 construct: KDM7 (PHF8); BRIC; 1-1322; Bac
T3 sequence (Q9UPP1 37-440 limits assumed): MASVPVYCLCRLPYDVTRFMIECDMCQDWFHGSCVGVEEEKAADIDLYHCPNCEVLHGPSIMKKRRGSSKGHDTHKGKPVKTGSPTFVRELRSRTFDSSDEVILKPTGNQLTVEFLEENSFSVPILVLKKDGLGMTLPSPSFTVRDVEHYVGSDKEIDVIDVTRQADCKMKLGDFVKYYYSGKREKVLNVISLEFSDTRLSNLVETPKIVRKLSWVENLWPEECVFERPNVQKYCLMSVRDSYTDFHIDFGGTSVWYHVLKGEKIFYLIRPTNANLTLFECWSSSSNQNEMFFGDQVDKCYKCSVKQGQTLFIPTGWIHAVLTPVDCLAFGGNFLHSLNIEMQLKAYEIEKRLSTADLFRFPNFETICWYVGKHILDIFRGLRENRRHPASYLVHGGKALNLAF
In short: as §1

KDM6A (UTX) = target: T4, KDM6A (UTX) (Homo sapiens, UniProt O15550); experiment: Histone lysine demethylase AlphaLISA assay, KDM6A
T4 construct: KDM6A (UTX); BRIC; 919-1401; E. coli; host or cells: E. coli
T4 sequence (O15550 919-1401): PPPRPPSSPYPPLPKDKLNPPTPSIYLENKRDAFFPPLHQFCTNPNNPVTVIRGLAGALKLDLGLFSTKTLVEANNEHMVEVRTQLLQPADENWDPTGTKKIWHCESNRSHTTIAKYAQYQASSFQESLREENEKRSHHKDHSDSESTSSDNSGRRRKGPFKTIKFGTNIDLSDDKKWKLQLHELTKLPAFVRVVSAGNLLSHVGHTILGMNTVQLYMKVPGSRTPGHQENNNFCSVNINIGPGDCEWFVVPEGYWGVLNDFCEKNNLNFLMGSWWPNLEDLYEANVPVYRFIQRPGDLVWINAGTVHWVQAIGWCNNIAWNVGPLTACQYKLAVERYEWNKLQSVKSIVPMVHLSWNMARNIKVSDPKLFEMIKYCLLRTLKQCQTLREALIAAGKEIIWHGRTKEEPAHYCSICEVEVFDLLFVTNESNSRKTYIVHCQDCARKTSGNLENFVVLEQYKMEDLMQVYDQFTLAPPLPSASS
In short: as §1

KDM5B (PLU-1) = target: T5, KDM5B (PLU-1) (Homo sapiens, UniProt Q9UGL1); experiment: Histone lysine demethylase AlphaLISA assay, KDM5B
T5 construct: BRIC; 1-809; E. coli; host or cells: E. coli
T5 sequence (Q9UGL1 1-809): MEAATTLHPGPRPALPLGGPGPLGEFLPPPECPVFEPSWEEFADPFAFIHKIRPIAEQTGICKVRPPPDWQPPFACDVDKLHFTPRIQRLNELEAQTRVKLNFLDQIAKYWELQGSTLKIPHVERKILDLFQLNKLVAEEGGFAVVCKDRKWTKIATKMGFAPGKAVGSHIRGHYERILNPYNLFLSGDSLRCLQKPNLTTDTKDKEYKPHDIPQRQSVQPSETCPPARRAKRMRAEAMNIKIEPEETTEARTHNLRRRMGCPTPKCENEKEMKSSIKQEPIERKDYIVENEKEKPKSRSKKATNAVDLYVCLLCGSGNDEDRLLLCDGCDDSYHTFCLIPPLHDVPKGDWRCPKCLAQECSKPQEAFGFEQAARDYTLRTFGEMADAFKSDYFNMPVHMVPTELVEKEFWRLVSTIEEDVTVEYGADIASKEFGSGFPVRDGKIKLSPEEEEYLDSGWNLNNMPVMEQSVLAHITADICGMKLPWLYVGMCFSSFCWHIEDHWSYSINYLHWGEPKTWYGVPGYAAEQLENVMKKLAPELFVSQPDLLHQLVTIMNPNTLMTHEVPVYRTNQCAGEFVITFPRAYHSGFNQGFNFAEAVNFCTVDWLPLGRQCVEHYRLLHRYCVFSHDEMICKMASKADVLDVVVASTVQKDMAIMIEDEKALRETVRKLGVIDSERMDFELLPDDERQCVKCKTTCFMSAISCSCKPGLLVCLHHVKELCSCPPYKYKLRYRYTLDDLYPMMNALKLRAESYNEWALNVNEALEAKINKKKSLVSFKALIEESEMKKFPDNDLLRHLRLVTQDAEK
In short: as §1

[1] = AlphaLISA assay, read-out: HDME Inhibition KDM4C (IC50)
[2] = AlphaLISA, in vitro, read-out: HDME Inhibition KDM4C
[3] = AlphaLISA, in vitro, read-out: HDME Inhibition KDM2B
[4] = AlphaLISA, in vitro, read-out: HDME Inhibition PHF8
[5] = AlphaLISA assay, read-out: HDME Inhibition KDM6A (IC50)
[6] = AlphaLISA, in vitro, read-out: HDME Inhibition KDM6A
[7] = AlphaLISA assay, read-out: HDME Inhibition KDM5B (IC50)
[8] = AlphaLISA, in vitro, read-out: HDME Inhibition KDM5B
[9] = AlphaLISA assay, read-out: HDME Inhibition PHF8 (IC50)

pIC50 (KDM4C (JMJD2C); [1])	pIC50 (KDM4C (JMJD2C); [2])	pIC50 (KDM2B (FBXL10); [3])	pIC50 (PHF8 (KDM7); [4])	pIC50 (KDM6A (UTX); [5])	pIC50 (KDM6A (UTX); [6])	pIC50 (KDM5B (PLU-1); [7])	pIC50 (KDM5B (PLU-1); [8])	pIC50 (PHF8 (KDM7); [9])	pIC50 (KDM2B (FBXL10); AlphaLISA assay, read-out: HDME Inhibition KDM2B (IC50))	Compound
< 5.00	< 5.00	6.82	6.42	< 5.00	< 5.00	< 5.00	< 5.00			Cc1cc(C(=O)O)cc(CNCc2ncc(C(C)C)n2Cc2ccc(F)cc2)n1 [Compound 8, 2-{[({1-[(4-fluorophenyl)methyl]-5-(propan-2-yl)-1H-imidazol-2-yl}methyl)amino]methyl}-6-methylpyridine-4-carboxylic acid]
< 5.00	< 5.00	5.80	5.42	< 5.00	< 5.00	< 5.00	< 5.00			C/C=C/c1cc(C(=O)O)cc(CNCc2nccn2Cc2ccc(F)cc2)n1 [Compound 5, 2-{[({1-[(4-fluorophenyl)methyl]-1H-imidazol-2-yl}methyl)amino]methyl}-6-[(1E)-prop-1-en-1-yl]pyridine-4-carboxylic acid]
< 5.00	< 5.00	7.52	6.63	< 5.00	< 5.00	< 5.00	< 5.00			CCc1cnc(CNCc2cc(C(=O)O)cc(C)n2)n1Cc1ccc(F)cc1 [Compound 4, 2-{[({5-ethyl-1-[(4-fluorophenyl)methyl]-1H-imidazol-2-yl}methyl)amino]methyl}-6-methylpyridine-4-carboxylic acid]
< 5.00	< 5.00	5.91	< 5.00	< 5.00	< 5.00	< 5.00	< 5.00	< 5.00		Cc1cc(C(=O)O)cc(CNCCc2ncccc2-c2ccsc2)n1 [Compound 34, 2-methyl-6-[({2-[3-(thiophen-3-yl)pyridin-2-yl]ethyl}amino)methyl]pyridine-4-carboxylic acid]
< 5.00	< 5.00	6.34	5.97	< 5.00	< 5.00	< 5.00	< 5.00			Cc1cc(C(=O)O)cc(CNCc2ncc(CCc3ccccc3)n2Cc2ccc(F)cc2)n1 [Compound 28, 2-{[({1-[(4-fluorophenyl)methyl]-5-(2-phenylethyl)-1H-imidazol-2-yl}methyl)amino]methyl}-6-methylpyridine-4-carboxylic acid]
< 5.00	< 5.00	5.15	< 5.00	< 5.00	< 5.00		5.91	< 5.00		Cc1cc(C(=O)O)cc(CN[C@H]2CCc3cccnc32)n1 [Compound 7, 2-({[(7S)-5H,6H,7H-cyclopenta[b]pyridin-7-yl]amino}methyl)-6-methylpyridine-4-carboxylic acid]
< 5.00	< 5.00	6.80	6.27	< 5.00	< 5.00	< 5.00	< 5.00			CCc1nnc(CNCc2cc(C(=O)O)cc(C)n2)n1Cc1ccc(F)cc1 [Compound 27, 2-{[({5-Ethyl-4-[(4-fluorophenyl)methyl]-4H-1,2,4-triazol-3-yl}methyl)amino]methyl}-6-methylpyridine-4-carboxylic acid]
< 5.00	< 5.00	< 5.17	5.46	< 5.05	< 5.05	< 5.00	< 5.00		< 5.17	CCCCCc1cccnc1CCNCc1cc(C(=O)O)cc(C)n1 [Compound 16, 2-methyl-6-({[2-(3-pentylpyridin-2-yl)ethyl]amino}methyl)pyridine-4-carboxylic acid]
< 5.00	< 5.00	5.95	5.92	< 5.00	< 5.00	< 5.00	< 5.00			Cc1cc(C(=O)O)cc(CNCc2nc3c(n2Cc2ccc(F)cc2)CCC3)n1 [Compound 25, 2-{[({1-[(4-fluorophenyl)methyl]-1H,4H,5H,6H-cyclopenta[d]imidazol-2-yl}methyl)amino]methyl}-6-methylpyridine-4-carboxylic acid]
